Paper PMC8256712, “Crystal structures of Aspergillus oryzae Rib2 deaminase: the functional mechanism involved in riboflavin biosynthesis” (IUCrJ, 2021)

How the values were obtained:
AoRib2_188 = molecular target: T1, AoRib2_188 (Aspergillus oryzae, UniProt Q2UFA9); experiment: X-ray crystal structure, soaked, […] A; type: binding; details: crystals pH 6.5 (MES), soaked 20 min in 50-100 mM DARIPP; active site with Zn2+
T1 construct: gene rib2; deaminase domain, residues 1-188 of 222, C-terminal segment deleted; Zn ligands His61, Cys102, Cys112, general base Glu63
T1 sequence (Q2UFA9 1-188): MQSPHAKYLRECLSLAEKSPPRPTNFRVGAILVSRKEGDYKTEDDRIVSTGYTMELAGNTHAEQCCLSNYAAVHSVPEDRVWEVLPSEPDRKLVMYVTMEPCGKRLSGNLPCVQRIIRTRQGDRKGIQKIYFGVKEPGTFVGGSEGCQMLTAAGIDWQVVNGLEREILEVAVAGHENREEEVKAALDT

AoRib2 = molecular target: T2, AoRib2 (Aspergillus oryzae, UniProt Q2UFA9); experiment: deaminase assay, fluorescence after diacetyl modification; type: biochemical; details: 310 K, 30 min; DARIPP made enzymatically in situ from GTP
T2 construct: gene rib2; full length, 222 residues; monomer
T2 sequence (Q2UFA9 1-222): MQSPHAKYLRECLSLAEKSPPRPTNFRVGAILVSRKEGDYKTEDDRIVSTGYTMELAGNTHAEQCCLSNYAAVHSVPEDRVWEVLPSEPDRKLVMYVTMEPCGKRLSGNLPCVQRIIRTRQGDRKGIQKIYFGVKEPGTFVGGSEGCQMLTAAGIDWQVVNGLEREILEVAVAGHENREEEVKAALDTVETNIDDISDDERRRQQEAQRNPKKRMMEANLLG

Nc1nc(NC[C@H](O)[C@H](O)[C@H](O)COP(=O)(O)O)c(N)c(=O)[nH]1 [DARIPP, 2,5-diamino-6-ribitylamino-4(3H)-pyrimidinone 5′-phosphate]
X-ray crystal structure, soaked, 1.58 A (AoRib2_188): DARIPP could be built nicely into strong electron density and is firmly embedded in the active site
deaminase assay, fluorescence after diacetyl modification (AoRib2): the recombinant protein is able to catalyze the conversion of DARIPP to ARIPP
